Each molecule was assayed against T1, α5-GABAA receptor (Homo sapiens, UniProt P18507+P31644) (assay: Cell-level screening: whole cell patch clamp, inverse agonist efficacy on α5-GABAA receptor expressed in HEK293). Details: drug 100 nM, GABA 0.05 μM, HEK293 expressing α5, β3 and γ2 subunits, clamped at −60 mV; read-out: Compound inverse agonist efficacy %.
T1 construct: expressed in transfected cells; host or cells: HEK293, monoclonal stably transfected line
T1 sequence (P31644 32-462): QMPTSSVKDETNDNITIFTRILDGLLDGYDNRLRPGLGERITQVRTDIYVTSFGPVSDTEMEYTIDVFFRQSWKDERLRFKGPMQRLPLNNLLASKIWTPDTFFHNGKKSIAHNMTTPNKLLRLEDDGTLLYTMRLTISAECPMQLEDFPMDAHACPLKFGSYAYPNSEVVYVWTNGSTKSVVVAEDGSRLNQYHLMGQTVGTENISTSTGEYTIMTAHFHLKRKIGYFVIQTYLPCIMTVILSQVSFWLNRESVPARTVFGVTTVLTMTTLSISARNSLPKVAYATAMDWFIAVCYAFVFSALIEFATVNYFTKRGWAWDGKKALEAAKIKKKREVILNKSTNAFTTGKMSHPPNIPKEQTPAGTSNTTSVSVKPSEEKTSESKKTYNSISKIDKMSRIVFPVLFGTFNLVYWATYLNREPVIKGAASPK
T1 sequence (P28472 26-473 partner): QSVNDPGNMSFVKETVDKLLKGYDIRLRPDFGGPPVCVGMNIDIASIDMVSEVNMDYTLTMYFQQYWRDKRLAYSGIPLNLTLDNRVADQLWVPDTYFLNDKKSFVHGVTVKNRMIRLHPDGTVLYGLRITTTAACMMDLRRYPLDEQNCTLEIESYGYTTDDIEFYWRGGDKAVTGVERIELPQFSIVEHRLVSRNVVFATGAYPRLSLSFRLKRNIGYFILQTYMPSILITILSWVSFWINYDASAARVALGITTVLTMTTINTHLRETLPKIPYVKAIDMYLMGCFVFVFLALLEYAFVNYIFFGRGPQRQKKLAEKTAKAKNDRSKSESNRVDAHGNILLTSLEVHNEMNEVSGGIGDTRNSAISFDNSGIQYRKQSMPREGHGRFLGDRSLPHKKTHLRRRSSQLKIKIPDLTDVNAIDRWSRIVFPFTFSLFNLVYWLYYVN
T1 sequence (P18507 40-467 isoform P18507-1 limits assumed): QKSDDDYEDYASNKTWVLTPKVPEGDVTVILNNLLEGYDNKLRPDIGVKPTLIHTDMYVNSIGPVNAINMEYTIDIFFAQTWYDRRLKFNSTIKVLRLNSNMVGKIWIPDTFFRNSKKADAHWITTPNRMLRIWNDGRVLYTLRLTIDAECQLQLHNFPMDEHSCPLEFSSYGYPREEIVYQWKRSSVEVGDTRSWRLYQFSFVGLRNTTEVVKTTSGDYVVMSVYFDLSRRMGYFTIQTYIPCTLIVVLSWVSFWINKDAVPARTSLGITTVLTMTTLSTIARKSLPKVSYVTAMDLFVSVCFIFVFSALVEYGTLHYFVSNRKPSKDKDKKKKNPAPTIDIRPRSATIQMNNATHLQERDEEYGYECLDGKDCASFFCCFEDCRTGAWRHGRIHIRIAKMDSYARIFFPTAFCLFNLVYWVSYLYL
Format: cell-based
Procedure: The inventors used electrophysiological methods to determine the inverse agonist efficacy of the drugs to be tested on the α5-GABAA receptor. The detailed methods are as follows:
Different subunits of GABAA receptors were expressed in human […] cell line 293 (HEK293) cell line. The cells were cultured in a culture medium and used as a cell model for screening pain inhibiting drugs. The α, β and γ subunits are necessary to form complete functional GABAA receptors. In this embodiment, the inventors had established the following cell model: α5 subunit (see GenBank Accession No. NM_000810.3 for protein sequences), β3 subunit (see GenBank Accession No. NM_000814.5 for protein sequences) and γ2 subunit (see GenBank Accession No. NM_000816.3 for protein sequences) were expressed in HEK293 cell line at the same time, followed by screening the monoclonal cell line. This cell line contained α5-GABAA receptor and had complete GABAA receptor function.
The monoclonal stably transfected HEK-293 cells expressing α5-GABAA receptor were cultured in 10 cm culture dishes and passaged when the cells grew to 80%-90%. During passaging, the culture medium was aspirated first, then 3 mL of DPBS phosphate buffer salt (Gibco™) was added to the culture dishes, and the culture dishes were shaken slightly, and DPBS was aspirated. 1 mL of trypsin (TrypLE Express, Gibco™) was added thereto, and the cells were digested at 37° C. for 1-2 minutes. Then 3 mL of complete medium (DMEM+10% FBS (Gibco™)) was added and the cells at the bottom of the culture dishes were dispersed. The cell suspension were transferred to a 15 mL centrifugal tube (Corning) and then centrifuged at 200 g for 3 minutes. The supernatant was discarded, 4 mL of complete medium was added, and the cells were gently blown and resuspended for use. If cell passaging was performed, the cell suspension was diluted at a ratio of 1:5 or 1:10. If cells for electrophysiology use were prepared, the cell suspension was diluted in a ratio of 1:12, then added into a 24-well dish (Corning™) in which glass slides were placed and pretreated with Poly-D-Lysine, and the cells were tested after being attached to the walls. The culture time of cells for electrophysiology use was no more than 48 hours.
Drug concentration setting: the final drug concentration used in drug screening was 100 nM, and the GABA concentration range was 0.05 μM. The final drug concentrations used in the dose-inversal agonistic efficiency (%) test were 0.3 nM, 3 nM, 10 nM, 30 nM, 100 nM and 300 nM. The whole cell patch clamp technique was used in electrophysiological experiments, which could refer to the literature (I. Lecker, Y. Yin, D. S. Wang and B. A. Orser, (2013) Potentiation of GABAA receptor activity by volatile anaesthetics is reduced by α5-GABAA receptor-preferring inverse agonists, British Journal of Anaesthesia 110 (S1): i73-i81). The components of extracellular solution (ECS) for electrophysiology use were as follows: 150 mM NaCl, 5 mM KCl, 2.5 mM CaCl2), 1 mM MgCl2, 10 mM HEPES and 10 mM glucose (pH 7.4); electrode internal solutions for electrophysiology use were as follows: 140 mM CsCl, 11 mM EGTA, 10 mM HEPES, 2 mM CaCl2), 1 mM MgCl2, 4 mM MgATP, 2 mM TEA (pH 7.3). The signal acquisition used an EPC-10 amplifier and the PatchMaster software (HEKA). The recording electrode was drawn using borosilicate glass, and the electrode resistance was 4 to 6 MΩ. The ALA-VC3-8PP™ system was used for extracellular administration. Separate cells that grew independently was selected for recording. During recording, the cell membrane potential was clamped at −60 mV. During experiment, an extracellular solution was applied to the cells for about 20 seconds. When the baseline reached to a stable state, the extracellular solution was switched to GABA. Then the current induced by GABA could be detected. […]
In the case of COc1cc2nnc(-c3cc(C)on3)n2nc1OCc1ccc2c(n1)CCN(c1cc(C)on1)C2 [Embodiment 191], the inhibition at 0.1 µM is reported as 44%.
COc1cc2nnc(-c3cc(C)on3)n2nc1OCc1ccc2c(n1)CN(CCC#N)C2 [Embodiment 256, 3-(2-(((7-Methoxy-3-(5-methylisoxazol-3-yl)-[1,2,4]triazolo[4,3-b]pyridazin-6-yl)oxy)methyl)-5,7-dihydro-6H-pyrrolo[3,4-b]pyridin-6-yl)propanenitrile] showed an inhibition at 0.1 µM of 40.2%.
Work on COCCOc1nccc2nc(COc3nn4c(-c5cc(C)on5)nnc4cc3OC)ccc12 [Embodiment 146] yielded an inhibition at 0.1 µM of 33.4%.
COc1cc2nnc(-c3cc(C)on3)n2nc1OCc1ccc(OCC2CCCO2)cn1 (centres unmarked) [Embodiment 106] showed an inhibition at 0.1 µM of 60.4%.
Work on COc1cc2nnc(-c3cc(C)on3)n2nc1OCc1ncccc1C#N [Embodiment 30] yielded an inhibition at 0.1 µM of 29.4%.
COCCn1ccc2nc(COc3nn4c(-c5cc(C)on5)nnc4cc3OC)ccc2c1=O [Embodiment 147] was tested, and the inhibition at 0.1 µM was 39.8%.
COc1cc2nnc(-c3cc(C)on3)n2nc1OCc1ccc(S(C)(=O)=O)cn1 [Embodiment 53] was tested, and the inhibition at 0.1 µM was 48.8%.
COc1cc2nnc(-c3cc(C)on3)n2nc1OCc1ccc2c(n1)CCN(CC(F)(F)F)C2 [Embodiment 77] showed an inhibition at 0.1 µM of 44.8%.
COc1cc2nnc(-c3cc(C)on3)n2nc1OCc1ccc(-c2nc(C)no2)cn1 [Embodiment 137, 5-(6-(((7-Methoxy-3-(5-methylisoxazol-3-yl)-[1,2,4]triazolo[4,3-b]pyridazin-6-yl)oxy)methyl)pyridin-3-yl)-3-methyl-1,2,4-oxadiazole] showed an inhibition at 0.1 µM of 47.2%.
CCOc1nccc2nc(COc3nn4c(-c5cc(C)on5)nnc4cc3OC)ccc12 [Embodiment 145] gave an inhibition at 0.1 µM of 51.3%.
CCOc1ccc(COc2nn3c(-c4cc(C)on4)nnc3cc2OC)nc1 [Embodiment 23] showed an inhibition at 0.1 µM of 41.2%.
With COc1cc2nnc(-c3cc(C)on3)n2nc1OCc1cccc(C2(F)CCNC2)n1 (centres unmarked) [Embodiment 125] the inhibition at 0.1 µM was 41.8%.
In the case of COc1cc2nnc(-c3cc(C)on3)n2nc1OCc1cccc(C(F)(F)F)n1 [Embodiment 45], the inhibition at 0.1 µM is reported as 42.4%.
COc1cc2nnc(-c3cc(C)on3)n2nc1OCc1ccc2c(n1)CCN(C1CC(F)(F)C1)C2 [Embodiment 184] gave an inhibition at 0.1 µM of 33.9%.
COc1cc2nnc(-c3cc(C)on3)n2nc1OCc1ccc2c(n1)CCN(Cc1nnc(C)o1)C2 [Embodiment 188] showed an inhibition at 0.1 µM of 52.4%.
COc1cc2nnc(-c3cc(C)on3)n2nc1OCc1cnc(OC2CCOCC2)cn1 [Embodiment 177] was tested, and the inhibition at 0.1 µM was 56.5%.
Molecule COc1cc2nnc(-c3cc(C)on3)n2nc1OCc1ccc2nn(C(C)C)cc2n1 [Embodiment 235] has an inhibition at 0.1 µM of 43.5%.
Work on COCC(C)Oc1ccc(COc2nn3c(-c4cc(C)on4)nnc3cc2OC)nn1 (centres unmarked) [Embodiment 161] yielded an inhibition at 0.1 µM of 53.1%.
In the case of COc1cc2nnc(-c3cc(C)on3)n2nc1OCc1ccc2c(n1)N(C)CCO2 [Embodiment 149], the inhibition at 0.1 µM is reported as 71.7%.
Molecule COc1cc2nnc(-c3cc(C)on3)n2nc1OCc1ccc2c(n1)CCN([C@H]1CCOC1)C2 (single isomer, unassigned) [Embodiment 181] has an inhibition at 0.1 µM of 59%.
With COc1cc2nnc(-c3cc(C)on3)n2nc1OCc1ccc2c(n1)CCN(CC13CC(C#N)(C1)C3)C2 [Embodiment 194] the inhibition at 0.1 µM was 41.5%.
With COc1cc2nnc(-c3cc(C)on3)n2nc1OCc1ccc2c(n1)CCN([C@@H]1CCOC1)C2 (single isomer, unassigned) [Embodiment 182] the inhibition at 0.1 µM was 53.8%.
For COc1cc2nnc(-c3cc(C)on3)n2nc1OCc1cccc(N2CCOCC2)n1 [Embodiment 2], the inhibition at 0.1 µM was 26.6%.
COc1cc2nnc(-c3cc(C)on3)n2nc1OCc1ccc(OCCCC#N)cn1 [Embodiment 8] gave an inhibition at 0.1 µM of 57.8%.
In the case of COc1cc2nnc(-c3cc(C)on3)n2nc1OCc1ccc(C(F)(F)F)cn1 [Embodiment 59], the inhibition at 0.1 µM is reported as 35.7%.
COc1cc2nnc(-c3cc(C)on3)n2nc1OCc1ccc2c(n1)CNCC2 [Embodiment 120] was tested, and the inhibition at 0.1 µM was 42.6%.
With COc1cc2nnc(-c3cc(C)on3)n2nc1OCc1ccc2nn(C3COC3)cc2n1 [Embodiment 226, 3-(7-Methoxy-6-((2-(oxetan-3-yl)-2H-pyrazolo[4,3-b]pyridin-5-yl)methoxy)-[1,2,4]triazolo[4,3-b]pyridazin-3-yl)-5-methylisoxazole] the inhibition at 0.1 µM was 45.9%.
COc1cc2nnc(-c3cc(C)on3)n2nc1OCc1ccc2c(cnn2CCC#N)n1 [Embodiment 228] showed an inhibition at 0.1 µM of 44.7%.
For COc1cc2nnc(-c3cc(C)on3)n2nc1OCc1ccc2c(n1)CCN(C(=O)C1CC1)C2 [Embodiment 81], the inhibition at 0.1 µM was 45.9%.
Work on COc1cc2nnc(-c3cc(C)on3)n2nc1OCc1ccc2cnn(C)c2n1 [Embodiment 220] yielded an inhibition at 0.1 µM of 51.8%.
With COc1cc2nnc(-c3cc(C)on3)n2nc1OCc1cccc(C)n1 [Embodiment 16] the inhibition at 0.1 µM was 31.1%.
In the case of COc1cc2nnc(-c3cc(C)on3)n2nc1OCc1ccc2c(ccn2C)n1 [Embodiment 97], the inhibition at 0.1 µM is reported as 32.6%.
With COc1cc2nnc(-c3cc(C)on3)n2nc1OCc1ccccc1C#N [Embodiment 5] the inhibition at 0.1 µM was 31.5%.
COc1cc2nnc(-c3cc(C)on3)n2nc1OCc1ccc(C2CC2)cn1 [Embodiment 34] was tested, and the inhibition at 0.1 µM was 38%.
COCCCn1ccc2ccc(COc3nn4c(-c5cc(C)on5)nnc4cc3OC)nc21 [Embodiment 93] gave an inhibition at 0.1 µM of 36.5%.
CCOc1cccc(COc2nn3c(-c4cc(C)on4)nnc3cc2OC)n1 [Embodiment 22] gave an inhibition at 0.1 µM of 22.1%.
Work on COc1cc2nnc(-c3cc(C)on3)n2nc1OCc1ccc2nc(C3CCOCC3)cn2n1 [Embodiment 212] yielded an inhibition at 0.1 µM of 72.6%.
CCn1nc(C)c2nc(COc3nn4c(-c5cc(C)on5)nnc4cc3OC)ccc21 [Embodiment 243] gave an inhibition at 0.1 µM of 50.5%.
Molecule COc1cc2nnc(-c3cc(C)on3)n2nc1OCc1ccc(OC(F)(F)F)cn1 [Embodiment 61] has an inhibition at 0.1 µM of 45.8%.
COc1cc2nnc(-c3cc(C)on3)n2nc1OCc1ccc2nn(Cc3cc(C)on3)cc2n1 [Embodiment 225] gave an inhibition at 0.1 µM of 74.4%.
COc1cc2nnc(-c3cc(C)on3)n2nc1OCc1ccc2nn(C3COC3)c(C)c2n1 [Embodiment 258] was tested, and the inhibition at 0.1 µM was 54.7%.
For COc1cc2nnc(-c3cc(C)on3)n2nc1OCc1ccc2nccn2n1 [Embodiment 105], the inhibition at 0.1 µM was 49.3%.
COc1cc2nnc(-c3cc(C)on3)n2nc1OCc1cccc(C#N)n1 [Embodiment 40] showed an inhibition at 0.1 µM of 39%.
COCCn1ccc2ccc(COc3nn4c(-c5cc(C)on5)nnc4cc3OC)nc21 [Embodiment 92] was tested, and the inhibition at 0.1 µM was 52.8%.
Molecule COc1cc2nnc(-c3cc(C)on3)n2nc1OCc1ccc2c(n1)CCN(C1CN(C(C)=O)C1)C2 [Embodiment 199, 1-(3-(2-(((7-Methoxy-3-(5-methylisoxazol-3-yl)-[1,2,4]triazolo[4,3-b]pyridazin-6-yl)oxy)methyl)-7,8-dihydro-1,6-naphthyridin-6(5H)-yl)azetidin-1-yl)ethan-1-one] has an inhibition at 0.1 µM of 56.8%.
COc1cc2nnc(-c3cc(C)on3)n2nc1OCc1ccc(OCCCC#N)nn1 [Embodiment 27] showed an inhibition at 0.1 µM of 42%.
COc1cc2nnc(-c3cc(C)on3)n2nc1OCc1ccc2c(ncn2C)n1 [Embodiment 118] showed an inhibition at 0.1 µM of 63.7%.
COc1cc2nnc(-c3cc(C)on3)n2nc1OCc1ccc2nnc(C3CCOCC3)n2n1 [Embodiment 215] gave an inhibition at 0.1 µM of 36.8%.
COc1cc2nnc(-c3cc(C)on3)n2nc1OCc1ccc2c(n1)NCCO2 [Embodiment 119] was tested, and the inhibition at 0.1 µM was 35.9%.
For COc1cc2nnc(-c3cc(C)on3)n2nc1OCc1ccc(OC2COC2)cn1 [Embodiment 175], the inhibition at 0.1 µM was 36%.

Reference: patent US12637468B2, “Substituted [1,2,4]triazolo[4,3-b]pyridazines as GABAA receptor modulators” (SHANGHAI SIMR BIOTECHNOLOGY CO., LTD., priority 2019, dated 2026)
